The molecules below were run against Tie2 (Homo sapiens, UniProt Q02763) (assay: Tie2 ELISA assay (cellular Tie2 autophosphorylation)). Conditions: CHO cells stably transfected with Tie2, stimulated by angiopoietin-2; Tie2 autophosphorylation by sandwich-ELISA; read-out: Tie 2 activity (assay 1).
Type: cell-based
Design: expressed in transfected cells; host or cells: CHO (CHO Tie2/DHFR)
Method: Cellular activity of compounds of the present invention as inhibitors of Tie2 kinase activity was measured employing a Tie2 ELISA assay as described in the following paragraphs. Herein CHO cell-cultures, which are stably transfected by known techniques with Tie2 using DHFR deficiency as selection marker, are stimulated by angiopoietin-2. The specific autophosphorylation of Tie2 receptors is quantified with a sandwich-ELISA using anti-Tie2 antibodies for catch and anti-phosphotyrosine antibodies coupled to HRP for detection.
• 96 well tissue culture plate, sterile, Greiner • 96 well FluoroNunc plate MaxiSorp Surface C, Nunc • 96 well plate polypropylene for compound dilution in DMSO • CHO Tie2/DHFR (transfected cells) • PBS−; PBS++, DMSO • MEM alpha Medium with Glutamax-I without Ribonucleosides and Deoxyribonucleosides (Gibco #32561-029) • with 10% FCS after dialysis! and 1% PenStrep • Lysis buffer: 1 Tablet “Complete” protease inhibitor • 1 cap Vanadate (1 mL>40 mg/mL; working solution 2 mM) • ad 50 mL with Duschl-Puffer • pH 7.6 • Anti-Tie2-antibody 1:425 in Coating Buffer pH 9.6 • Stock solution: 1.275 mg/mL>working.: 3 μg/mL • PBST: 2 bottles PBS (10×)+10 ml Tween, fill up with VE-water • RotiBlock 1:10 in VE-water • Anti-Phosphotyrosine HRP-Conjugated 1:10000 in 3% TopBlock • 3% TopBlock in PBST • BM Chemiluminescence ELISA Substrate (POD) • solution B 1:100 solution A • SF9 cell culture medium • Ang2-Fc in SF9 cell culture medium
• Dispense 5×10^4 cells/well/98 μL in 96 well tissue culture plate • Incubate at 37° C./5% CO2 • After 24 h add compounds according to desired concentrations • Add also to control and stimulated values without compounds 2 μL DMSO • And mix for a few min at room temperature • Add 100 μL Ang2-Fc to all wells except control, which receives insect medium • Incubate 20 min at 37° C. • Wash 3× with PBS++ • Add 100 μl Lysis buffer/well and shake a couple of min at room temperature • Store lysates at […] before utilizing for the ELISA
• Coat 96 well FluoroNunc Plate MaxiSorp Surface C with anti-Tie2 mAb 1:425 in Coating buffer pH 9.6; 100 μL/well overnight at 4° C. • Wash 2× with PBST • Block plates with 250 μL/well RotiBlock 1:10 in VE-water • Incubate for 2 h at room temperature or overnight at 4° C. shaking • Wash 2× in PBST • Add thawed lysates to wells and incubate overnight shaking at 4° C. • Wash 2× with PBST • Add 100 μL/well anti-Phosphotyrosine HRP-Conjugated 1:10000 in 3% TopBlock (3% TopBlock in PBST) and incubate overnight under shaking • Wash 6× with PBST • Add 100 μL/well BM Chemiluminescence ELISA Substrate (POD) solutions 1 und 2 (1:100) • Determine luminescence with the LumiCount. Assay 2: Tie-2-Kinase HTRF-Assay without Kinase Preactivation

Sequence of Tie2 (Q02763 23-1124, species assumed): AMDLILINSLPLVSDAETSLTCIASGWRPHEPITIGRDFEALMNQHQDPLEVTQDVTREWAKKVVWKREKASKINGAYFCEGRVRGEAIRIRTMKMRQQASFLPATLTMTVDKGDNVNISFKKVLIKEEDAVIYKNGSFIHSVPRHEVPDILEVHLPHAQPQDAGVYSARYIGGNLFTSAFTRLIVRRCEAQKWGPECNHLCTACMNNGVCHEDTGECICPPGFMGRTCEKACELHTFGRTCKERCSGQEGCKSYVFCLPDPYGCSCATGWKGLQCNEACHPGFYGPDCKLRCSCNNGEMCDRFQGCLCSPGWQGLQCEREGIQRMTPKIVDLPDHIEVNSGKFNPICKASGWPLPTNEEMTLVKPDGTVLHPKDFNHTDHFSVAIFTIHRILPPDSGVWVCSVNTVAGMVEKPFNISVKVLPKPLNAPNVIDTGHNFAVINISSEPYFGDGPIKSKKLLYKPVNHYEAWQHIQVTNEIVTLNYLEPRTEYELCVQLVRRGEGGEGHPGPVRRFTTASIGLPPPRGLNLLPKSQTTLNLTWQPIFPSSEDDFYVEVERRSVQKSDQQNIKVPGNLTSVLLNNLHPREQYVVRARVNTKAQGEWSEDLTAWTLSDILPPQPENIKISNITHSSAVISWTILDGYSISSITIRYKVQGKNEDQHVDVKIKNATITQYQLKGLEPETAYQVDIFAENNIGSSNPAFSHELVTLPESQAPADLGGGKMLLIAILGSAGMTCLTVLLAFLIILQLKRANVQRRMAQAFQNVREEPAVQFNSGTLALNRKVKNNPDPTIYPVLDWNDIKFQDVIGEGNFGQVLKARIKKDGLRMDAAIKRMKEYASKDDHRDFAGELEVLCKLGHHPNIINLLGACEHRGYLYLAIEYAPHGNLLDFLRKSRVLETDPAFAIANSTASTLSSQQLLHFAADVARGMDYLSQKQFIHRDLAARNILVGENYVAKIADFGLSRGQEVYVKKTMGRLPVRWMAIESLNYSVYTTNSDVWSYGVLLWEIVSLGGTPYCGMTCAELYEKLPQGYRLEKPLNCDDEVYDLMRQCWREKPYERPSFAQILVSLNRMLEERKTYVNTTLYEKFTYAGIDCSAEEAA

IC50, < 501 nM:
CN(C)C1CCN(c2ccc(C(F)(F)F)cc2NC(=O)Nc2ccc(-c3cncc4c3cnn4C)cc2)C1 (centres unmarked) [Example 13.12, 1-[2-(3-Dimethylamino-pyrrolidin-1-yl)-5-trifluoromethyl-phenyl]-3-[4-(1-methyl-1H-pyrazolo[3,4-c]pyridin-4-yl)-phenyl]-urea]
CN(C)CCN(C)c1ccc(C(F)(F)F)cc1NC(=O)Nc1ccc(-c2cncc3c2cnn3C)cc1 [Example 13.13, 1-{2-[(2-Dimethylamino-ethyl)-methyl-amino]-5-trifluoromethyl-phenyl}-3-[4-(1-methyl-1H-pyrazolo[3,4-c]pyridin-4-yl)-phenyl]-urea]
Cn1nc(C(C)(C)C)cc1NC(=O)Nc1ccc(-c2cncc3c2cnn3C)cc1 [Example 14.3, 1-(5-tert-Butyl-2-methyl-2H-pyrazol-3-yl)-3-[4-(1-methyl-1H-pyrazolo[3,4-c]pyridin-4-yl)-phenyl]-urea]
Cn1ncc2c(-c3ccc(NC(=O)Nc4cc(C(F)(F)F)ccn4)c(F)c3)cncc21 [Example 14.5, 1-[2-Fluoro-4-(1-methyl-1H-pyrazolo[3,4-c]pyridin-4-yl)-phenyl]-3-(4-trifluoromethyl-pyridin-2-yl)-urea]
CC(C)c1cc(NC(=O)Nc2ccc(-c3cncc4c3cnn4C)cc2)n(-c2cccc(F)c2)n1 [Example 15.1, 1-[2-(3-Fluoro-phenyl)-5-isopropyl-2H-pyrazol-3-yl]-3-[4-(1-methyl-1H-pyrazolo[3,4-c]pyridin-4-yl)-phenyl]-urea]
CC(C)c1cc(NC(=O)Nc2ccc(-c3cncc4c3cnn4C)cc2F)n(-c2cccc(F)c2)n1 [Example 15.2, 1-[2-Fluoro-4-(1-methyl-1H-pyrazolo[3,4-c]pyridin-4-yl)-phenyl]-3-[2-(3-fluoro-phenyl)-5-isopropyl-2H-pyrazol-3-yl]-urea]
COc1cccc(-n2nc(C(C)(C)C)cc2NC(=O)Nc2ccc(-c3cncc4c3cnn4C)cc2)c1 [Example 15.5, 1-[5-tert-Butyl-2-(3-methoxy-phenyl)-2H-pyrazol-3-yl]-3-[4-(1-methyl-1H-pyrazolo[3,4-c]pyridin-4-yl)-phenyl]-urea]
Cn1ncc2c(-c3ccc(NC(=O)Nc4cc(C(C)(C)C)nn4-c4ccc(F)cc4)cc3)cncc21 [Example 15.7, 1-[5-tert-Butyl-2-(4-fluoro-phenyl)-2H-pyrazol-3-yl]-3-[4-(1-methyl-1H-pyrazolo[3,4-c]pyridin-4-yl)-phenyl]-urea]
Cn1ncc2c(-c3ccc(NC(=O)Nc4cc(C(C)(C)C)nn4-c4ccncc4)cc3)cncc21 [Example 15.10, 1-(5-tert-Butyl-2-pyridin-4-yl-2H-pyrazol-3-yl)-3-[4-(1-methyl-1H-pyrazolo[3,4-c]pyridin-4-yl)-phenyl]-urea]
Cn1ncc2c(-c3ccc(NC(=O)Nc4cc(C(C)(C)C)nn4-c4cncc(F)c4)cc3)cncc21 [Example 15.12, 1-[5-tert-Butyl-2-(5-fluoro-pyridin-3-yl)-2H-pyrazol-3-yl]-3-[4-(1-methyl-1H-pyrazolo[3,4-c]pyridin-4-yl)-phenyl]-urea]
Cn1ncc2c(-c3ccc(NC(=O)Nc4cc(C(C)(C)C)nn4-c4cncc(F)c4)c(F)c3)cncc21 [Example 15.13, 1-[5-tert-Butyl-2-(5-fluoro-pyridin-3-yl)-2H-pyrazol-3-yl]-3-[2-fluoro-4-(1-methyl-1H-pyrazolo[3,4-c]pyridin-4-yl)-phenyl]-urea]
